Reference: patent US11964971B2, “Methods and compositions for modulating splicing” (Skyhawk Therapeutics, Inc., priority 2019, dated 2024)

Tests used:
SMN protein = SMN protein assay (MSD) in SMA patient fibroblasts (GM03813); assay type: cell-based, human
Outline: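 SMA patient fibroblasts GM03813 (7000 cells/well) treated 48 h with compounds from 2.5 μM to 0.6 nM. Lysate SMN protein quantified by MSD immunoassay against an SMN standard curve (1 to 19.5 μg/ml) on each plate, giving absolute amounts.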

[1] = system: MDR1-MDCK cell monolayers; conditions: dog, MDCK-MDR1, 120 min, 5 μM, pH 7.4
Procedure: (§1) Experimental Procedure: MDR1-MDCK cell monolayers are grown to confluence on collagen-coated, microporous membranes in 12-well assay plates. The permeability assay buffer is Hanks' balanced salt solution containing 10 mM HEPES and 15 mM glucose at a pH of 7.4. The buffer in the receiver chamber also contained 1% bovine serum albumin. The dosing solution concentration is 5 μM of test article in the assay buffer. Cell monolayers are dosed on the apical side (A-to-B) or basolateral side (B-to-A) and incubated at 37° C. with 5% CO2 in a humidified incubator. Samples are taken from the donor and receiver chambers at 120 minutes. Each determination is performed in duplicate. The flux of lucifer yellow is also measured post-experimentally for each monolayer to ensure no damage was inflicted to the cell monolayers during the flux period. All samples are assayed by LC-MS/MS using electrospray ionization.
(§2) Analytical Method: Liquid Chromatography • Column: Waters ACQUITY UPLC BEH Phenyl 30×2.1 mm, 1.7 μm • M.P. Buffer: 25 mM ammonium formate buffer, pH 3.5 • Aqueous Reservoir (A): 90% water, 10% buffer • Organic Reservoir (B): 90% acetonitrile, 10% buffer • Flow Rate: 0.7 mL/minute • Gradient Program:
(§3) • Total Run Time: 1.00 minute • Autosampler: 2 μL injection volume • Wash1: water/methanol/2-propanol:1/1/1; with 0.2% formic acid • Wash2: 0.1% formic acid in water • Brain Penetration • Potential Classification: A-B Papp≥3.0 and Efflux Ratio<3.0: High • A-B Papp≥3.0 and 10>Efflux Ratio≥3.0: Moderate • A-B Papp≥3.0 and Efflux Ratio≥10: Low • A-B Papp<3.0: Low

MDR1 = assay: in vitro; conditions: dog; for Papp A→B at 120 min, 5 μM: MDCK-MDR1, pH 7.4, MDCK-MDR1: Papp A-B (10^−6, cm/s); for Papp B→A at 120 min, 5 μM: MDCK-MDR1, pH 7.4, MDCK-MDR1: Papp B-A (10^−6, cm/s)
Procedure: as §1, §2, §3

MDR1 (P-gp) = assay: MDCK-MDR1 permeability assay, blood-brain-barrier penetration potential; conditions: dog, MDCK-MDR1, pH 7.4, MDCK-MDR1 Efflux Ratio
Procedure: as §1, §2, §3

Structure (SMILES) | EC50 (SMN protein) [nM] | MDCK-MDR1: % Recov A-B (%) [1] [%] | MDCK-MDR1: % Recov B-A (%) [1] [%] | Papp A→B at 120 min, 5 μM (MDR1) [×10⁻⁶ cm/s] | Papp B→A at 120 min, 5 μM (MDR1) [×10⁻⁶ cm/s] | efflux ratio at 120 min, 5 μM (MDR1 (P-gp))
COc1cc(-c2ccc(-c3cnc(N(C4CC4)[C@@H]4CC5CC[C@H](N5)[C@@H]4F)cn3)c(O)c2)cc(F)n1 (single isomer, unassigned) [Compound 52E1] | 501 to 10000 | 12 | 76 | 0.92 | 0.71 | 1
COc1cc(-c2ccc(-c3cnc(N(C4CC4)[C@H]4C[C@@H]5CCC(N5)[C@H]4F)cn3)c(O)c2)cc(F)n1 (single isomer, unassigned) [Compound 52E2] | 501 to 10000 | 12 | 49 | 1.63 | 3.32 | 2
Cn1ccc(-c2ccc(-c3cnc(N(C4CC4)[C@@H]4CC5CC[C@H](N5)[C@@H]4F)cn3)c(O)c2)cc1=O (single isomer, unassigned) [Compound 53E1] | 501 to 10000 | 71 | 71 | 1.51 | 50.9 | 34
Cn1ccc(-c2ccc(-c3cnc(N(C4CC4)[C@H]4C[C@@H]5CCC(N5)[C@H]4F)cn3)c(O)c2)cc1=O (single isomer, unassigned) [Compound 53E2] | 501 to 10000 | 71 | 69 | 1.61 | 46.1 | 29
O=c1cc(-c2ccc(-c3cnc(N(C4CC4)[C@@H]4CC5CC[C@H](N5)[C@@H]4F)cn3)c(O)c2)ccn1CF (single isomer, unassigned) [Compound 54E1] | 501 to 10000 | 64 | 70 | 1.92 | 43.4 | 23
O=c1cc(-c2ccc(-c3cnc(N(C4CC4)[C@H]4C[C@@H]5CCC(N5)[C@H]4F)cn3)c(O)c2)ccn1CF (single isomer, unassigned) [Compound 54E2] | 501 to 10000 | 63 | 67 | 1.81 | 44 | 24
Cn1cnc(-c2ccc(-c3cnc(N(C4CC4)[C@@H]4CC5CC[C@H](N5)[C@@H]4F)cn3)c(O)c2)cc1=O (single isomer, unassigned) [Compound 55E1] | 501 to 10000 | 81 | 85 | 2.46 | 64.4 | 26
Cn1cnc(-c2ccc(-c3cnc(N(C4CC4)[C@H]4C[C@@H]5CCC(N5)[C@H]4F)cn3)c(O)c2)cc1=O (single isomer, unassigned) [Compound 55E2] | 501 to 10000 | 71 | 76 | 2.25 | 42.2 | 19
COc1cc(-c2ccc(-c3cnc(N(C4CC4)[C@@H]4CC5CC[C@H](N5)[C@@H]4F)cn3)c(O)c2)ncn1 (single isomer, unassigned) [Compound 56E1] | 501 to 10000 | 17 | 51 | 2.09 | 7.91 | 4
COc1cc(-c2ccc(-c3cnc(N(C4CC4)[C@H]4C[C@@H]5CCC(N5)[C@H]4F)cn3)c(O)c2)ncn1 (single isomer, unassigned) [Compound 56E2] | 101 to 500 | 14 | 48 | 2.12 | 4.55 | 2
CNC(=O)/C=C/c1cc(O)c(-c2cnc(N(C)[C@@H]3CC4CC[C@H](N4)[C@@H]3F)cn2)cc1F (single isomer, unassigned) [Compound 60E1] | 51 to 100 | 93 | 88 | 1.71 | 51.3 | 30
CN(c1cnc(-c2cc(F)c(C3=CC(F)NC(F)=C3)cc2O)cn1)[C@@H]1C[C@@]2(C)CC[C@](C)(N2)[C@@H]1F (single isomer, unassigned) [Compound 63E1] | 501 to 10000 | 18 | 35 | 0.7 | 0.45 | 1
COc1cc(-c2cc(O)c(-c3cnc(N(C)[C@@H]4C[C@@]5(C)CC[C@](C)(N5)[C@@H]4F)cn3)cc2F)cnn1 (single isomer, unassigned) [Compound 64E1] | 501 to 10000 | 71 | 80 | 3.97 | 49.8 | 13
CN(c1cnc(-c2cc(F)c(-c3cn[nH]c3)cc2O)cn1)[C@@H]1CC2CC(F)(F)[C@@H](C1)N2 (single isomer, unassigned) [Compound 65E1] | 101 to 500 | 54 | 71 | 20.9 | 54.5 | 3
CN(c1cnc(-c2cc(F)c(-c3cn[nH]c3)cc2O)cn1)[C@@H]1CC2N[C@H](C1)CC2(F)F (single isomer, unassigned) [Compound 65E2] | 501 to 10000 | 54 | 63 | 28.3 | 37.7 | 1
CN(c1cnc(-c2cc(F)c(-c3cnn(C)c3)cc2O)cn1)[C@@H]1CC2CC(F)(F)[C@@H](C1)N2 (single isomer, unassigned) [Compound 66E1] | 101 to 500 | 42 | 51 | 21.9 | 20.7 | 1
CN(c1cnc(-c2cc(F)c(-c3cnn(C)c3)cc2O)cn1)[C@@H]1CC2N[C@H](C1)CC2(F)F (single isomer, unassigned) [Compound 66E2] | 501 to 10000 | 43 | 55 | 22.7 | 18.3 | 1
COc1cc(-c2cc(O)c(-c3cnc(N(C)[C@@H]4CC5CC(F)(F)[C@@H](C4)N5)cn3)cc2F)cnn1 (single isomer, unassigned) [Compound 67E1] | 501 to 10000 | 62 | 74 | 22.2 | 42.5 | 2
COc1cc(-c2cc(O)c(-c3cnc(N(C)[C@@H]4CC5N[C@H](C4)CC5(F)F)cn3)cc2F)cnn1 (single isomer, unassigned) [Compound 67E2] | 501 to 10000 | 60 | 68 | 14.3 | 55.4 | 4
COc1cc(-c2ccc(-c3cnc(N(C)[C@@H]4CC5N[C@H](C4)CC5(F)F)cn3)c(O)c2)cnn1 (single isomer, unassigned) [Compound 68E1] | 501 to 10000 | 63 | 86 | 9.35 | 43 | 5
Cc1nc(-c2ccc(-c3cnc(N(C)[C@@H]4CC5CC[C@H](N5)[C@@H]4F)cn3)c(O)c2)no1 (single isomer, unassigned) [Compound 69E1] | 501 to 10000 | 49 | 61 | 9.43 | 17.9 | 2
